{"source": "patent US20190388558A1", "about": "“KARTOGENIN DERIVATIVE-CONTAINING POLYMERIC MICELLE, HYALURONIC ACID HYDROGEL, METHOD FOR PRODUCING THE SAME, AND USE THEREOF” (DONGGUK UNIVERSITY INDUSTRY-ACADEMIC COOPERATION FOUNDATION, priority 2018, published 2019)", "test_system": "rats in which OA was induced", "assay": "Intra-articular injection in rats with surgically induced (ACLT + MM) degenerative arthritis; histology, immunohistochemistry, OARSI and Mankin scoring", "type": "in vivo, Sprague Dawley rats", "settings": "IA injection twice at 7th and 10th week after surgery, sacrificed 8th week after first injection", "method": "Animal experiments were performed with the approval of the animal experiment ethics committee by using 9-week old male Sprague Dawley rats (Orient Inc., Seoul, Korea). Degenerative arthritis (osteoarthritis; OA) was induced by performing anterior cruciate ligament transection (ACLT) and medial meniscectomy (MM) on the rats, and the rats were allowed to exercise on a treadmill for 20 minutes every day from two weeks after the surgery.\nIn the Examples of the present invention, technical statistics were used in order to determine the group average and standard deviation. […]\nThe rats were sacrificed at 8th week after the first IA injection, the knee joints were dissected and fixed with 10% paraformaldehyde (at 4° C. for 1 day), and then calcareous materials were removed with a Lite decalcifying solution (Sigma-Aldrich), and after the resulting knee joints were embedded in a Tissue-Tek OCT compound (Sakura Finetek, Torrance, Calif., USA) or paraffin wax, and then the paraffin wax fragment was stained with Safranin-O (4% w/v) and Fast Green (0.1% w/w). The degenerative state was evaluated by using an Osteoarthritis Research Society International (OARSI) cartilage Histopathology Assessment System and a Mankin evaluation system, and the fragments were analyzed through immunohistochemistry for COL2 and aggrecan. […]"}
{"smiles": "O=C(O)c1ccccc1C(=O)Nc1ccc(-c2ccccc2)cc1", "note": "[KGN, kartogenin]", "values": [{"measurement": "cartilage histology (Safranin-O staining)", "value": "loss of cartilage due to matrix vertical cracks and surface layer exfoliation"}]}
